Values quoted from earlier work as cited in patent US6815453B1, “Cosmetic and dermatological light protection formulations having a content of triazine derivatives and glyceryl compounds” (Beiersdorf AG, priority 1996, dated 2004).

CCCCC(CC)COC(=O)c1ccc(Nc2nc(Nc3ccc(C(=O)OCC(CC)CCCC)cc3)nc(Nc3ccc(C(=O)OCC(CC)CCCC)cc3)n2)cc1 (stereo not drawn) [UVINUL® T 150, 4,4′,4″-(1,3,5-triazine-2,4,6-triyltriimino)-trisbenzoic acid tris(2-ethylhexyl ester)]
corresponding dissolved, and therefore active, UV filter substance (corresponding to the maximum solubility in known solvents): 1-1.5 % by weight | maximum amount of the filter dissolved by known solvents (known solvents for this UVB filter, prior-art statement): ≤ 15 % by weight | solubility in lipids (stated in words as the main disadvantage): poor solubility in lipids
